Assay results as given in ChEMBL document CHEMBL1201862, “PubChem BioAssay data set” (2004).
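These data come from cells grown in 96-well plates and exposed to compound for 48 hours at five concentrations. GI50 marks 50% less growth.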 Calls of active or inactive are those of the source. Rule as the data show it: active = GI50 up to about 1.1 µM and inactive = higher.

What was measured:
Assay in all cases: NCI anticancer screen, dose series, 48 h
[1] = tested on: OVCAR-3
[2] = tested on: MCF7
[3] = tested on: LOX IMVI
[4] = tested on: KM12
[5] = tested on: SF-539
[6] = tested on: SK-MEL-28
[7] = tested on: MDA-MB-435
[8] = tested on: Malme-3M
[9] = tested on: RPMI-8226
[10] = tested on: OVCAR-4
[11] = tested on: HCT-116
[12] = tested on: CAKI-1
[13] = tested on: HCC 2998
[14] = tested on: TK-10
[15] = tested on: COLO 205
[16] = tested on: OVCAR-5
[17] = tested on: U-251
[18] = tested on: M14
[19] = tested on: SR

SMILES: O=c1c2c(c1=O)C1(SCCCS1)c1cc(Cl)ccc1O2
- GI50 [1]: > 100 µM (inactive)
- GI50 [2]: > 100 µM (inactive)
- GI50 [3]: > 100 µM (inactive)
- GI50 [4]: > 100 µM (inactive)
- GI50 [5]: > 100 µM (inactive)
- GI50 [6]: > 100 µM (inactive)
- GI50 [7]: > 100 µM (inactive)
- GI50 [8]: > 100 µM (inactive)
- GI50 [9]: > 100 µM (inactive)
- GI50 [10]: > 100 µM (inactive)
- GI50 [11]: > 100 µM (inactive)
- GI50 [12]: > 100 µM (inactive)
- GI50 [13]: > 100 µM (inactive)
- GI50 [14]: > 100 µM (inactive)
- GI50 [15]: > 100 µM (inactive)
- GI50 [16]: > 100 µM (inactive)
- GI50 [17]: > 100 µM (inactive)
- GI50 [18]: > 100 µM (inactive)

SMILES: Cc1c2c(n3c(nc4ccccc43)c1C#N)N(c1ccc(Cl)cc1)CC2
- GI50 [1]: > 100 µM (inactive)
- GI50 [2]: > 100 µM (inactive)
- GI50 [3]: > 100 µM (inactive)
- GI50 [5]: > 100 µM (inactive)
- GI50 [6]: > 100 µM (inactive)
- GI50 [7]: > 100 µM (inactive)
- GI50 [8]: > 100 µM (inactive)
- GI50 [10]: > 100 µM (inactive)
- GI50 [11]: > 100 µM (inactive)
- GI50 [12]: > 100 µM (inactive)
- GI50 [13]: > 100 µM (inactive)
- GI50 [14]: > 100 µM (inactive)
- GI50 [15]: > 100 µM (inactive)
- GI50 [16]: > 100 µM (inactive)
- GI50 [17]: > 100 µM (inactive)
- GI50 [18]: > 100 µM (inactive)

SMILES: Cc1c(S(=O)(=O)c2ccccc2)c(N)n(Cc2ccccc2)c1C
- GI50 [1]: 96.8 µM (inactive)
- GI50 [2]: > 100 µM (inactive)
- GI50 [4]: > 100 µM (inactive)
- GI50 [5]: 53.1 µM (inactive)
- GI50 [6]: > 100 µM (inactive)
- GI50 [7]: > 100 µM (inactive)
- GI50 [8]: > 100 µM (inactive)
- GI50 [9]: > 100 µM (inactive)
- GI50 [10]: 85.7 µM (inactive)
- GI50 [19]: > 100 µM (inactive)
- GI50 [11]: > 100 µM (inactive)
- GI50 [12]: > 100 µM (inactive)
- GI50 [13]: > 100 µM (inactive)
- GI50 [14]: > 100 µM (inactive)
- GI50 [15]: > 100 µM (inactive)
- GI50 [16]: > 100 µM (inactive)
- GI50 [17]: > 100 µM (inactive)
- GI50 [18]: 7.08 µM (inactive)

SMILES: C[n+]1c(-c2ccc(/C=N\NC(=O)c3ccc(C(=O)N/N=C/c4ccc(-c5cn6ccsc6[n+]5C)cc4)cc3)cc2)cn2ccsc21
- GI50 [1]: 11.6 µM (inactive)
- GI50 [2]: 20.2 µM (inactive)
- GI50 [4]: 23 µM (inactive)
- GI50 [5]: 23.6 µM (inactive)
- GI50 [7]: 15.8 µM (inactive)
- GI50 [8]: 21 µM (inactive)
- GI50 [9]: 14.2 µM (inactive)
- GI50 [10]: 28.8 µM (inactive)
- GI50 [19]: 17.3 µM (inactive)
- GI50 [12]: 18.7 µM (inactive)
- GI50 [13]: 34 µM (inactive)
- GI50 [14]: 19.9 µM (inactive)
- GI50 [15]: 25 µM (inactive)
- GI50 [16]: 17.3 µM (inactive)
- GI50 [17]: 25.6 µM (inactive)
- GI50 [18]: 17.8 µM (inactive)

SMILES: COC1=CC(=O)C(O)=C(CC2(C)C(C)CCC3(C)C2CCCC3(C)C)C1=O (configuration not stated)
- GI50 [1]: 5.43 µM (inactive)
- GI50 [3]: 4.6 µM (inactive)
- GI50 [4]: 6.44 µM (inactive)
- GI50 [5]: 2.84 µM (inactive)
- GI50 [6]: 4.43 µM (inactive)
- GI50 [8]: 4.03 µM (inactive)
- GI50 [9]: 2.96 µM (inactive)
- GI50 [10]: 4.18 µM (inactive)
- GI50 [19]: 3.11 µM (inactive)
- GI50 [11]: 5.12 µM (inactive)
- GI50 [12]: 3.34 µM (inactive)
- GI50 [13]: 3.6 µM (inactive)
- GI50 [14]: 4.97 µM (inactive)
- GI50 [15]: 5.51 µM (inactive)
- GI50 [16]: 10.3 µM (inactive)
- GI50 [17]: 2.44 µM (inactive)
- GI50 [18]: 2.18 µM (inactive)

SMILES: O=C(OCN1C(=O)C2C3C=CC(C2C1=O)C1C2C(=O)N(COC(=O)C4CCCN4)C(=O)C2C31)C1CCCN1 (configuration not stated)
- GI50 [1]: > 100 µM (inactive)
- GI50 [3]: 35.9 µM (inactive)
- GI50 [4]: > 94 µM (inactive)
- GI50 [5]: 47.8 µM (inactive)
- GI50 [6]: > 83.9 µM (inactive)
- GI50 [8]: > 100 µM (inactive)
- GI50 [9]: 24.8 µM (inactive)
- GI50 [10]: > 58.3 µM (inactive)
- GI50 [19]: < 0.01 µM (active)
- GI50 [11]: 28.8 µM (inactive)
- GI50 [12]: > 86.9 µM (inactive)
- GI50 [13]: > 100 µM (inactive)
- GI50 [14]: > 100 µM (inactive)
- GI50 [15]: 59.8 µM (inactive)
- GI50 [16]: > 100 µM (inactive)
- GI50 [17]: > 45.8 µM (inactive)
- GI50 [18]: 71.6 µM (inactive)
